According to patent publication US20170007644A1, “A METHOD OF TREATING NEOPLASIA” (FUWAN PTY LTD, priority 2013, published 2017):

Tested on: A549-GFP cells (A549/lung cancer cells)
Experiment: Proliferation assay (fluorescence intensity) of A549-GFP cells treated with MLPC and/or doxorubicin
Type: cell-based, human
Settings: doxorubicin alone 0.8 μM or 4 μM, 72 hours, FIG. 7
Method: Single cell suspensions of A549-GFP, A549-LG, and SKOV3-LG were obtained after trypsinization of the monolayer cultures and counted by trypan blue exclusion. In brief, the cells were seeded at various densities of 1000, 2000, 4000, 5000, 6000, and 10.000 cells into black microliter plates (Nunc) and incubated in 200 microliter culture medium for 3 days. Then the supernatant of cell culture were replaced by 100 microliter Dulbecco's Phosphate buffered saline (DPBS). The fluorescence intensity was determined by excitation and emission on fluorescent microplate reader (BMG).
Single cell suspensions of A549-GFP and SKOV3-LG were obtained by trypsinization of the monolayer cultures and counted by trypan blue exclusion. The proliferation of cancer cells, in particular the downregulation of proliferation, was evaluated by individual, simultaneous, two-stage models. MLPC and a chemotherapeutic drug were added simultaneously to A549-GFP and SKOV3-LG cells for 3 days. In a two-stage experiment, in the first stage MLPC were added to A549-GFP and SKOV3-LG cells for 3 days. In the second stage, supernatants of cells were removed and a chemotherapeutic drug was added for 3 days. […] Fluorescence intensities were determined to evaluate the effect on cancer cell proliferation of the various treatments and control.

## COc1cccc2c1C(=O)c1c(O)c3c(c(O)c1C2=O)C[C@@](O)(C(=O)CO)C[C@@H]3O[C@H]1C[C@H](N)[C@H](O)[C@H](C)O1 [doxorubicin]
  cancer cell proliferation (relative fluorescence intensity): significantly reduced cancer cell proliferation
